According to patent publication US20160256449A1, “H3 RECEPTOR ANTAGONIST FOR USE IN THE TREATMENT OF ALZHEIMER'S DISEASE” (SANOFI, priority 2013, published 2016):
Where a name gives a salt, the structure may show the parent alone.

How the values were obtained:
scopolamine treated mice = assay: object recognition task in scopolamine-treated mice; assay type: in vivo; conditions: 1 mg/kg alone
Description: FIG. 2 illustrates the results of the effect of a co-treatment with 2-(cyclohexylmethyl)-N-{2-[(2S)-1-methylpyrrolidin-2-yl]ethyl}-1,2,3,4-tetrahydroisoquinoline-7-sulfonamide and donepezil on recognition memory deficit in scopolamine-treated mice using the object recognition task.
The results of this study are depicted in FIG. 2.

CD1 male mice = assay: object recognition test in normal mice; assay type: in vivo; conditions: 3 mg/kg oral, individually
Description: FIG. 1 illustrates the results of the effect of a co-treatment with 2-(cyclohexyl methyl)-N-{2-[(2S)-1-methyl pyrrolidin-2-yl]ethyl}-1,2,3,4-tetrahydroisoquinoline-7-sulfonamide and donepezil on recognition memory in normal mice at various delays using the object recognition task.
The results of this study are depicted in FIG. 1.

various rodent models = conditions: cited from earlier work

Compound	activity of the amount given alone, episodic memory deficits (scopolamine treated mice)	memory in object recognition test (CD1 male mice; 24 hours after administration)	procognitive effect in object recognition test (CD1 male mice; after 48 hours)	cognitive performances on short-term and long-term memory and attention deficits (various rodent models)
COc1cc2c(cc1OC)C(=O)C(CC1CCN(Cc3ccccc3)CC1)C2 (racemic) [donepezil hydrochloride, (±)-2,3-dihydro-5,6-dimethoxy-2-[[1-(phenylmethyl)-4-piperidinyl]methyl]-1H-inden-1-one, reference compound]	inactive	enhanced the memory	lack of procognitive effect	
CN1CCC[C@H]1CCNS(=O)(=O)c1ccc2c(c1)CN(CC1CCCCC1)CC2 [2-(Cyclohexylmethyl)-N-{2-[(2S)-1-methylpyrrolidin-2-yl]ethyl}-1,2,3,4-tetrahydroisoquinoline-7-sulfonamide]				improves cognitive performances
